Source: patent US4889858A, “Dibenz[b,e]oxepin derivatives and pharmaceutical composition containing the same” (Dainippon Pharmaceutical Co., Ltd., priority 1986, dated 1989)
Counter-ions that a name gives are not always drawn.

How the values were obtained:
[1] = Prolonging effect of the persistent time of gasping movements in complete ischemia (decapitation); assay type: in vivo, mice (ddY male); settings: for minimal effective dose: Mus musculus, po, 2 hours after administration, mice; for activity in prolonging gasping movements, in words: p.o., compared with flunarizine hydrochloride / compounds of the invention
Procedure: Test was conducted in accordance with the procedure by Wauquier et al. [Japan J. Pharmacol., 38, 1 (1985)], employing five ddY male mice weighing 20-24 g in each group. Test compounds were suspended in 0.5% tragacanth solution and then a fixed amount of the suspension was orally administered to mice in an amount of 0.1 ml/10 g body weight, while the same amount of 0.5% tragacanth solution was orally administered to control group. Two hours after the administration of the test compounds, the necks of mice were cut with scissors for decapitation. The persistent of gasping movements of isolated heads was measured and minimal effective dose was determined by statistically comparing with the data in control group.

[2] = Anti-convulsant activity (Swinyard); assay type: in vivo, mice (ddY male); parameters: key: 9: Anticonvulsant activity was observed in all three mice.; 1: No anticonvulsant activity was observed in all three mice; settings: 100 mg/kg p.o.; 2 hours after administration; three mice
Procedure: Three ddY male mice weighing 20-24 g were employed in each group. Test compounds suspended in a 0.5% tragacanth solution were orally administered to mice at a dose of 100mg/kg in an amount of 0.1 ml/10 g body weight. The same amount of 0.5% tragacanth solution was orally administered to control group. Two hours after the administration of the test compounds, the anti-convulsant activity was measured in accordance with the procedure by Swinyard (Mercier, J., Ed., "Anticonvulsant Drugs", P. 47-65, Pargamon Press, New York, 1973).

[3] = test system: lipid peroxidation of brain mitochondria; assay: Inhibitory effect on lipid peroxidation of brain mitochondria (thiobarbituric acid method); assay type: biochemical; settings: rat brain mitochondria; 37° C., 30 minutes; Fe++ 25 μM, ascorbic acid 50 μM
Procedure: This test was conducted in accordance with the procedures by Kubo et al. [Arch. int. Pharmacodyn., 272, 283 (1984)]. Brain mitochondria of rat were incubated in 25 mM Tris-HCl buffer solution at 37° C. for 30 minutes in the presence of Fe^++ ion (25 μM) and ascorbic acid (50 μM), and the produced peroxidized lipid was measured by the thiobarbituric acid method.

[4] = Prolonging effect on the time to death by hypoxia (anoxia) in mice; assay type: in vivo, mice (STD-ddY male); settings: p.o.; compared with flunarizine hydrochloride
Procedure: Five STD-ddY male mice (weighing 20-24 g) were employed in each group. A fixed amount of test compounds was suspended in 0.5% tragacanth solution and the suspension was orally administered to mice in an amount of 0.1 ml/10 g body weight. Two hours after the administration, each mouse was taken in a 2.5 liter plastic chamber and a mixed gas comprising 4% oxygen and 96% nitrogen was passed through the chamber at a rate of 4 liter/min. There was measured the time till the death (respiratory cessation) of mice. To control group, a 0.5% tragacanth solution without test compound was orally administered.

Acute toxicity = assay type: in vivo, mice (ddY male); settings: 500 mg/kg p.o.; seven days observation; five mice
Procedure: Five ddY male mice weighing 20-24 g were employed in each group. The compound 1 of the present invention suspended in a 0.5% tragacanth solution was orally administered to mice at a dose of 500 mg/kg in an amount of 0.1 ml/10 g body weight. After the administration, the occurrence of death has been observed for seven days.

| IC50 [3] [µM] | Compound | minimal effective dose [1] [mg/kg] | activity in prolonging gasping movements, in words [1] | Score, anti-convulsant activity [2] | prolonging effect under hypoxic condition, in words [4] | occurrence of death (Acute toxicity) |
| --- | --- | --- | --- | --- | --- | --- |
| > 150 | Cc1ccc2c(c1)OCc1ccccc1C2N1CCN(C/C=C/c2ccccc2)CC1 (stereo not shown) [B, 11-(4-cinnamyl-1-piperazinyl)-3-methyl-6,11-dihydrodibenz[b,e]oxepin, reference compound] | > 100 | lower activities | 1 |  |  |
|  | COc1ccc2c(c1)C(N1CCN(C/C=C/c3ccccc3)CC1)c1ccccc1CO2 (stereo not shown) [Compound 2, 11-(4-cinnamyl-1-piperazinyl)-2-methoxy-6,11-dihydrodibenz[b,e]oxepin] | 3 |  |  | clearly more excellent than that o flunarizine hydrochloride |  |
|  | Fc1ccc(C(c2ccc(F)cc2)N2CCN(C/C=C/c3ccccc3)CC2)cc1 [Flunarizine hydrochloride, reference compound] | 30 |  | 9 |  |  |
|  | Fc1ccc2c(c1)COc1ccc(F)cc1C2N1CCN(C/C=C/c2ccccc2)CC1 (stereo not shown) [Compound 4] | 30 |  | 9 |  |  |
|  | Fc1ccc2c(c1)OCc1c(F)cccc1C2N1CCN(C/C=C/c2ccccc2)CC1 (stereo not shown) [Compound 5] | 3 |  |  |  |  |
| 12.3 | Oc1ccc2c(c1)C(N1CCN(C/C=C/c3ccccc3)CC1)c1ccccc1CO2 (stereo not shown) [Compound 3, 11-(4-cinnamyl-1-piperazinyl)-2-hydroxy-6,11-dihydrodibenz[b,e]oxepin] | 30 |  |  |  |  |
| > 150 | COc1cccc(C=CCN2CCN(C3c4ccccc4COc4cc(F)ccc43)CC2)c1 (stereo not shown) [A, 11-? 4-(3,-methoxycinnamyl)-1-piperazinyl-3-fluoro-6-11dihydrodibenz[b,e]oxepin, reference compound] | > 100 | lower activities | 1 |  |  |
|  | Fc1ccc2c(c1)C(N1CCN(CC=Cc3cccs3)CC1)c1ccccc1CO2 (stereo not shown) [Compound 8] | 30 |  |  |  |  |
|  | COc1ccc(OC)c2c1OCc1ccccc1C2N1CCN(C/C=C/c2ccccc2)CC1 (stereo not shown) [Compound 7] | 30 |  |  |  |  |
|  | Fc1ccc2c(c1)OCc1ccc(F)cc1C2N1CCN(C/C=C/c2ccccc2)CC1 (stereo not shown) [Compound 6] | 10 |  |  |  |  |

| Compound | IC50 [3] [µM] | minimal effective dose [1] [mg/kg] | activity in prolonging gasping movements, in words [1] | Score, anti-convulsant activity [2] | prolonging effect under hypoxic condition, in words [4] | occurrence of death (Acute toxicity) |
| --- | --- | --- | --- | --- | --- | --- |
| Fc1ccc2c(c1)OCc1ccccc1C2N1CCN(C/C=C/c2ccccc2)CC1 (stereo not shown) [Compound 1, 11-(4-cinnamyl-1-piperazinyl)-3-fluoro-6,11-dihydrodibenz[b,e]oxepin] | 7.8 | 10 |  | 9 | clearly more excellent than that o flunarizine hydrochloride | no death |
